TGI and GI50 data for twelve compounds are collected here from PubChem BioAssay (NCI).

Structures are written as SMILES.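 Briefly, cells in 96-well plates were exposed to five compound concentrations for 48 h, and endpoints were estimated by linear interpolation. Abbreviation: GI50, concentration required for 50% inhibition of growth. TGI: total growth inhibition.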

Test systems include RPMI-8226 leukemia; NCI-H522 lung; CCRF-CEM leukemia; SK-MEL-28 melanoma; NCI-H23 lung; HOP-62 NSCLC; HCT-15 colon; HL-60(TB) leukemia; MOLT-4 leukemia; NCI-H460 lung; OVCAR-4 ovarian.
Holding throughout (experiment): NCI anticancer screen, dose series, 48 h

On to `CC(C)=C/C=C1/CS(=O)(=O)C=C1C`, for which the TGI in the assay on RPMI-8226 leukemia, with NCI-H522 lung, with CCRF-CEM leukemia, with SK-MEL-28 melanoma, in the assay with NCI-H23 lung and in the assay with HOP-62 NSCLC was over 100 µM each time. Also, the TGI in the assay on HCT-15 colon, with HL-60(TB) leukemia and with MOLT-4 leukemia was over 100 µM in each case.
With `COc1ccc(C(=O)c2[nH]c(Nc3ccc(Cl)cc3)c(C(=S)Nc3ccccc3)c2N)cc1`, the TGI in the assay on NCI-H522 lung is over 100 µM; with CCRF-CEM leukemia it was over 100 µM; with NCI-H460 lung, over 100 µM; with SK-MEL-28 melanoma, 87 µM; in the assay with OVCAR-4 ovarian it was 93.6 µM; in the assay on NCI-H23 lung it was over 100 µM. For the same compound, the TGI in the assay with HOP-62 NSCLC, with HCT-15 colon, in the assay on HL-60(TB) leukemia and in the assay on MOLT-4 leukemia was over 100 µM each time.
`CC1(O)OC(=O)C2=C1CCC1C2CCC2(C)C(O)CCC12` (stereo unspecified): the TGI with RPMI-8226 leukemia, in the assay with NCI-H522 lung, with CCRF-CEM leukemia, in the assay with NCI-H460 lung, in the assay on SK-MEL-28 melanoma and in the assay with OVCAR-4 ovarian was over 100 µM throughout. For the same compound, the TGI in the assay with NCI-H23 lung, in the assay on HOP-62 NSCLC, in the assay on HCT-15 colon and in the assay on HL-60(TB) leukemia was over 100 µM throughout.
Take `COC(=O)C1=C(OC(=O)c2ccccc2)C(C(=O)OC)[C@]2(O)[C@@H](C(=O)OC)[C@H]1C[C@@H](c1ccccc1)[C@@H]2C(=O)OC` (stereo partly specified): the TGI is 13.8 µM with RPMI-8226 leukemia; 10.6 µM with CCRF-CEM leukemia; 42.4 µM with NCI-H460 lung; 76.3 µM in the assay with SK-MEL-28 melanoma; over 100 µM in the assay with OVCAR-4 ovarian; 32.7 µM with NCI-H23 lung. For the same compound, the TGI worked out at 52 µM in the assay on HOP-62 NSCLC, 35.4 µM in the assay on HCT-15 colon, 21.1 µM with HL-60(TB) leukemia and 23 µM in the assay with MOLT-4 leukemia.
In the case of `COc1cc([C@@H]2c3cc(O)c(OC)cc3C=C(C(N)=O)[C@H]2C(N)=O)ccc1O`, the TGI with RPMI-8226 leukemia, in the assay with NCI-H522 lung, in the assay with CCRF-CEM leukemia, with NCI-H460 lung, with SK-MEL-28 melanoma and with NCI-H23 lung was over 100 µM throughout. The TGI in the assay with HOP-62 NSCLC, in the assay on HCT-15 colon, in the assay on HL-60(TB) leukemia and with MOLT-4 leukemia was over 100 µM throughout.
As to `CCOC(=O)[C@H](Cc1ccc(O)cc1)N=C1[C@H]2CCC[C@]1(O)[C@@](C)([N+](=O)[O-])C2`, the TGI in the assay with RPMI-8226 leukemia, in the assay on NCI-H522 lung, in the assay with CCRF-CEM leukemia, in the assay with NCI-H460 lung, with SK-MEL-28 melanoma and with OVCAR-4 ovarian was over 100 µM each time. The TGI with NCI-H23 lung, with HCT-15 colon, with HL-60(TB) leukemia and in the assay with MOLT-4 leukemia was over 100 µM in each case.
Regarding `CC1OC(OC2C(OC(=O)[C@@H]3CC(C)(C)C[C@H]4C5=CC[C@@H]6[C@@]7(C)C[C@H](O)[C@H](OC8OC(CO)C(O)C(O)C8O)[C@@](C)(CO)[C@@H]7[C@H](O)C[C@@]6(C)[C@]5(C)CC[C@@]34C)OCC(O)C2O)C(O)C(O)C1O` (stereo partly specified), the TGI in the assay on NCI-H522 lung, with CCRF-CEM leukemia, in the assay on NCI-H460 lung, in the assay on OVCAR-4 ovarian, in the assay on NCI-H23 lung and in the assay with HOP-62 NSCLC was over 7.5 µM in each case. Further, the TGI in the assay with HCT-15 colon, in the assay on HL-60(TB) leukemia and with MOLT-4 leukemia was over 7.5 µM throughout.
Take `CC1OC(O[C@H]2/C=C/C=C/C=C/C=C/C=C/C=C/C=C/[C@H](C)[C@@H](O)[C@@H](C)[C@H](C)OC(=O)CC(O)CC(O)CCC(O)C(O)CC(O)C[C@]3(O)C[C@H](O)C(C(=O)O)C(C2)O3)C(O)[C@H](N)C1O` (stereo partly specified): the GI50 in the assay with RPMI-8226 leukemia was 16.6 µM; with NCI-H522 lung, 2.58 µM; with NCI-H460 lung, 2.14 µM; in the assay on SK-MEL-28 melanoma it was 2.07 µM; in the assay on NCI-H23 lung, 2.11 µM; with HOP-62 NSCLC, 1.57 µM. Moreover, the GI50 in the assay with HCT-15 colon is 12 µM; in the assay on HL-60(TB) leukemia, 3.79 µM; in the assay on MOLT-4 leukemia, 2.9 µM. For the same compound, the TGI was 59 µM in the assay with RPMI-8226 leukemia; 6.02 µM with NCI-H522 lung; over 100 µM in the assay with CCRF-CEM leukemia; 4.84 µM in the assay with NCI-H460 lung; 3.98 µM with SK-MEL-28 melanoma; 5.36 µM in the assay on NCI-H23 lung. For the same compound, the TGI with HOP-62 NSCLC is 3.11 µM; in the assay with HCT-15 colon it was 54 µM; in the assay on HL-60(TB) leukemia it was 10.9 µM; in the assay on MOLT-4 leukemia, 6.02 µM.
Consider `CC(C)C1=CC23CCC4C(C)(C(=O)O)CCCC4(C)C2CC1C1C(=O)N(c2ccc(C(=O)O)cc2)C(=O)C13` (stereo unspecified), for which the TGI in the assay on RPMI-8226 leukemia, in the assay on NCI-H522 lung, with NCI-H460 lung, with SK-MEL-28 melanoma, with OVCAR-4 ovarian and with NCI-H23 lung was over 100 µM in each case. The TGI in the assay with HOP-62 NSCLC, with HCT-15 colon, in the assay on HL-60(TB) leukemia and in the assay with MOLT-4 leukemia was over 100 µM in each case.
In the case of `CSCCC(NC(=O)Cc1ccc(C(=O)c2ccccc2)cc1)C(=O)O` (stereo unspecified), the TGI in the assay on NCI-H522 lung, in the assay on CCRF-CEM leukemia, in the assay with NCI-H460 lung, in the assay on SK-MEL-28 melanoma, in the assay on OVCAR-4 ovarian and in the assay on NCI-H23 lung was over 100 µM throughout. The TGI in the assay with HOP-62 NSCLC, in the assay with HCT-15 colon, in the assay with HL-60(TB) leukemia and in the assay with MOLT-4 leukemia was over 100 µM throughout.
In the case of `COc1ccc(/C=C2\CN(C)C/C(=C\c3ccc(OC)c(OC)c3OC)C2=O)c(OC)c1OC`, the TGI with RPMI-8226 leukemia amounted to 0.211 µM; in the assay on NCI-H522 lung, 0.473 µM; in the assay with CCRF-CEM leukemia, 0.0805 µM; in the assay with NCI-H460 lung, 0.435 µM; in the assay on SK-MEL-28 melanoma, 0.393 µM; with OVCAR-4 ovarian, 1.13 µM. The TGI worked out at 0.84 µM with HOP-62 NSCLC, 0.044 µM in the assay on HL-60(TB) leukemia and 0.0574 µM with MOLT-4 leukemia.
In the case of `O=C(CC(=O)Nc1ccccc1)N/N=C/c1cc(N=Nc2ccc(Br)cc2)ccc1O`, the TGI with RPMI-8226 leukemia was over 10 µM; in the assay with CCRF-CEM leukemia, 5.3 µM; in the assay with NCI-H460 lung it was over 10 µM; in the assay on SK-MEL-28 melanoma, over 10 µM; with OVCAR-4 ovarian, over 10 µM; in the assay on NCI-H23 lung, over 10 µM. Besides, the TGI in the assay on HOP-62 NSCLC was over 10 µM; in the assay on HCT-15 colon it was over 10 µM; in the assay on HL-60(TB) leukemia, 6 µM; in the assay with MOLT-4 leukemia, over 10 µM.
